Results reported in paper PMC9138102, “The Role of ZIP9 and Androgen Receptor in the Establishment of Tight Junctions between Adult Rat Sertoli Cells” (Biology, 2022).
Read-outs that look alike come from different tables or passages of the source.

How the values were obtained:
[1] = tested on: androgen binding site ZIP9 of the Sertoli cell line 93RS2; parameters: method as in PMID 35053053, PMID 35053017; conditions: 93RS2 / L6 (cell line not separately stated); cited from earlier work
JAM-3-specific mRNA = assay: JAM-3 mRNA expression in PASC1 cells, qRT-PCR; format: cell-based, rat; conditions: 10 nM testosterone or 10 µM IAPG, 24 h, n = 3 × 2
Protocol: Primers were designed with http://www.ncbi.nlm.nih.gov/tools/primer-blast (Accessed on 28 February 2022) and were all intron-spanning. Total RNA was isolated from PASC1 with the RNeasy Mini-Kit (Qiagen, Hilden, Germany) and subjected to DNase I treatment as described by the manufacturer. The Reverse Transcription-System first strand cDNA synthesis kit (Invitrogen, Darmstadt, Germany) was used for cDNA synthesis, as recommended. Quantitative real-time PCR (qRT-PCR) amplification was performed in duplicate with iQ TM SYBR Green Super-mix (Bio-Rad; Munich; Germany) on the iCycler iQ System (Bio-Rad). After an initial heating at 94 °C for 5 min, 40 amplification cycles were performed consisting of an initial denaturation of the DNA double strands at 94 °C for 14 s, an annealing phase of the primers at 59 °C for 30 s, and extension of the primers for 15 s at 72 °C. A finalizing extension at 72 °C was carried out for 10 min. Gene expression was measured after reaching the ct value and calculated using the Delta–Delta Ct method. Detection of GAPDH-specific mRNA/cDNA served as normalization of the quantification. Oligonucleotides used in the qRT-PCR, their annealing position, and the expected size of the amplificates are listed in Supplementary Table S2.
For silencing ZIP9 or AR expression, PASC1 cells were treated with commercially available siRNA directed against the expression of ZIP9 or the AR by following the manufacturer’s protocol (Silencer ® Select, siRNA Invitrogen, Darmstadt, Germany). The following oligonucleotides were used: 5′ […]tt3′ and 5′ […]ta 3′ (ZIP9-siRNA for ZIP9 silencing) and 5′[…]tt3′ plus 5′ […]ag 3′ (AR-siRNA for AR silencing). Negative control siRNA (nc-siRNA) was provided in the siRNA kit from the same manufacturer. After incubation of PASC1 for 48 h with ZIP9-siRNA, AR-siRNA, or nc-siRNA, preparation of samples for qRT-PCR, TER measurement, or immunofluorescence experiments were carried out as described above.

Erk1/2 [2] = assay: Erk1/2 phosphorylation in PASC1 cells, Western blot; format: cell-based, rat
Protocol: A total of 3 × 10^4 PASC1 cells/dish were grown in 5 cm culture dishes as described above. Cells were then incubated for 24 h with 1% FCS before testosterone or P1 were added to the medium to reach the desired final concentration. The ethanol vehicle for testosterone was added to the peptide-treated cells and untreated controls at the same concentration as in cell cultures treated with testosterone. After 24 h, the medium was aspired and the cells were washed twice in ice-cold DPBS. Cells were then incubated with 400 µL lysis buffer (Cell Signaling Technologies, Frankfurt, Germany) containing 1 µM PMSF, 1× protease inhibitor cocktail (Roche, Mannheim, Germany), and 2 µg/mL pepstatin that was added immediately before use. All further steps were carried out on ice. After 5 min of incubation, cells were detached using a cell scraper. The suspensions were then transferred into 1.5 mL vials and sonicated 5 times for 1 s each with intervals of 1 s. After centrifugation of the lysates at 4 °C and 13,000× g for 10 min, the protein concentration in the supernatants was determined at 540 nm using a bicinchoninic acid protein assay reagent kit (Pierce, Southfield, MI, USA) and a Labsystems (Helsinki, Finland) plate reader. The BSA protein standard contained lysis buffer at the same concentration as in the samples from the cell lysates. Supernatants were then aliquoted and maintained at −20 °C until further use.
A total of 10 µg protein from PASC1 cell lysates was run on SDS-PAGE gels containing 10% acrylamide and 0.3% N,N′-methylene-bis-acrylamide. Biotinylated proteins (Cell Signaling Technologies) were run in parallel as molecular weight markers. After electrophoresis, proteins were semi-dry electro-blotted onto PVDF membranes (Merck Chemicals GmbH, Schwalbach, Germany) for 30 min at […]. The membranes were then incubated for 1 h at room temperature in 5% (w/w) non-fat dry milk. Primary antibodies against phospho-Erk1/2, total-Erk1/2, or beta-actin were diluted according to the recommendations of the manufacturers and then incubated with the PVDF membranes overnight at 4 °C (see Supplementary Table S1 for all antibodies with dilutions and manufacturers). After washing in DPBS, the membranes were incubated under continuous mild agitation on an orbital shaker for 60 min at room temperature with a horseradish peroxidase-conjugated secondary antibody. An anti-biotin, HRP-conjugated antibody at a dilution of 1:2000 was also included in the mixture containing the secondary antibody in order to detect the biotinylated molecular weight marker. Antibody-labeled protein bands were visualized by enhanced chemiluminescence.
Figure 5 Western blot analysis of phospho-Erk1/2. PASC1 cells were stimulated for 24 h with various concentrations of testosterone or IAPG. (A) Phospho-Erk1/2 detection after stimulation with testosterone and (B) after stimulation with IAPG. […] For each diagram: n = 3; means ± SEM. Original Western blots are shown in Supplementary Figure S1.

Erk1/2 [3] = tested on: Erk1/2; parameters: method as in PMID 35053053; conditions: Sertoli cell line 93RS2, cited from earlier work
Text: Activation of Erk1/2 by phosphorylation occurs in the so-called non-classical signaling pathway of testosterone.

CREB/ATF-1 = assay: p-CREB/p-ATF-1 immunofluorescence in PASC1 cells after AR or ZIP9 silencing; format: cell-based, rat; conditions: 10 nM testosterone or 10 µM IAPG, 24 h, n = 3 × 25

| Compound | Prevention of T-BSA-FITC binding [1] | JAM-3 mRNA expression (JAM-3-specific mRNA; AR-siRNA) | JAM-3 mRNA expression (JAM-3-specific mRNA; ZIP9-siRNA) | JAM-3 mRNA expression (JAM-3-specific mRNA; nc-siRNA) | Total expression of Erk1/2 or beta-actin (Erk1/2 [2]) | EC50 (Erk1/2 [2]; Rattus norvegicus, 24 h per legend, within 30 min per text, 10^-10 to 10^-7 M, n = 3, means ± SEM) | Concentration needed for maximum stimulation of Erk1/2 phosphorylation (Erk1/2 [2]; testosterone) | Concentration for maximum Erk1/2 phosphorylation (Erk1/2 [3]; testosterone) | CREB/ATF-1 phosphorylation (CREB/ATF-1; AR-siRNA) | CREB/ATF-1 phosphorylation (CREB/ATF-1; ZIP9-siRNA) | CREB/ATF-1 phosphorylation (CREB/ATF-1; nc-siRNA) | Concentration needed for maximum stimulation of Erk1/2 phosphorylation (Erk1/2 [2]; IAPG) | Concentration for maximum Erk1/2 phosphorylation (Erk1/2 [3]; IAPG) |
| --- | --- | --- | --- | --- | --- | --- | --- | --- | --- | --- | --- | --- | --- |
| C[C@]12CC[C@H]3[C@@H](CCC4=CC(=O)CC[C@@]43C)[C@@H]1CC[C@@H]2O [testosterone] | Its binding can be prevented | upregulated | remained at basal levels | upregulated | did not affect total expression of Erk1/2 or beta-actin | 0.35 nM | 0.01 µM | 0.01 µM | to the same extent as cells treated with nc-siRNA | failed to stimulate phosphorylation of CREB/ATF-1 | stimulated CREB/ATF-1 phosphorylation |  |  |
| IAPG | Its binding can be prevented | upregulated | remained at basal levels | upregulated | did not affect total expression of Erk1/2 or beta-actin |  |  |  | to the same extent as cells treated with nc-siRNA | failed to stimulate phosphorylation of CREB/ATF-1 | stimulated CREB/ATF-1 phosphorylation | 10 µM | 10 µM |
